From PubChem BioAssay (NCI)
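In this assay, cells in 96-well plates receive the compound at five concentrations for 48 hours. Endpoints are linearly interpolated between the surrounding concentrations. Here, GI50 denotes the concentration required for 50% inhibition of growth. TGI marks complete inhibition of growth.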

Assays:
Assay in all cases: NCI-60 cell line screen, 48 h
EKVX NSCLC = test system: EKVX NSCLC
HOP-62 NSCLC = test system: HOP-62 NSCLC
U251 CNS = test system: U251 CNS
MOLT-4 leukemia = test system: MOLT-4 leukemia
SNB-75 CNS = test system: SNB-75 CNS
IGROV1 ovarian = test system: IGROV1 ovarian
CCRF-CEM leukemia = test system: CCRF-CEM leukemia
LOX IMVI melanoma = test system: LOX IMVI melanoma
SNB-19 CNS = test system: SNB-19 CNS
SF-268 CNS = test system: SF-268 CNS

Compound	GI50 (EKVX NSCLC) [µM]	TGI (EKVX NSCLC) [µM]	GI50 (HOP-62 NSCLC) [nM]	TGI (HOP-62 NSCLC) [µM]	GI50 (U251 CNS) [µM]	TGI (U251 CNS) [µM]	GI50 (MOLT-4 leukemia) [µM]	TGI (MOLT-4 leukemia) [µM]	GI50 (SNB-75 CNS) [nM]	TGI (SNB-75 CNS) [µM]	GI50 (IGROV1 ovarian) [nM]	TGI (IGROV1 ovarian) [µM]	GI50 (CCRF-CEM leukemia) [µM]	TGI (CCRF-CEM leukemia) [µM]	GI50 (LOX IMVI melanoma) [µM]	TGI (LOX IMVI melanoma) [µM]	GI50 (SNB-19 CNS) [µM]	TGI (SNB-19 CNS) [µM]	GI50 (SF-268 CNS) [µM]	TGI (SF-268 CNS) [µM]
CCCC1=C(C(=O)OCC)C(c2ccccc2OC)C(C#N)=C(N)O1 (configuration not stated)	> 100	> 100	> 100000	> 100	44.7	> 100	26.1	89.8	32200	> 100	14700	36.4	19.4	42.1	29.9	> 100	> 100	> 100	37.8	> 100
CC(=O)N1CC(=O)NC1=S		> 100		> 100		> 100		> 100		> 100		> 100		> 100		> 100		> 100		> 100
Nc1cccc2c1C1=NNC(=O)CC1C2 (configuration not stated)		> 100		> 100		> 100		> 100		> 100		> 100		> 100		> 100		> 100		> 100
C[C@H](N[C@H]1CCC[C@]1(O)C#Cc1ccc2c(c1)OCO2)c1ccccc1		> 25		> 25		> 25		> 25		> 25		> 25		> 25		> 25		> 25		> 25
COc1cc2c(cc1OC)C1Cc3cc(OC)c(OC)cc3C(C2)O1		> 100		> 100		> 100		> 100		> 100		> 100		> 100		> 100		> 100		> 100
COc1cc(NC(=O)CSc2nc3ccccc3c(=O)n2CCc2ccccc2)cc(OC)c1OC	4.8	> 100	2120	4.88	2.1	5.2	> 100	> 100	2230	11	1930	4.46	> 100	> 100	4.11	> 100	3.49	17.5	3.55	43.9
CNS(=O)(=O)c1ccc2[nH]c(O)c(C3=Nc4ccccc4C3=O)c2c1		> 100		> 100		39.8		> 100		> 100		> 100		> 100		> 100		> 100		> 100
Cc1ccc2ccc3ccc(C)nc3c2n1		> 100		> 100		> 100		> 100		> 100		> 100		> 100		> 100		> 100		> 100
CCOC(=O)C(=O)Nc1c(CC)cccc1C(C)CC (configuration not stated)		> 100		> 100		> 100		> 100		> 100		> 100		> 100		> 100		> 100		> 100
NC(=O)Nc1ccc(C(=O)NCCCNC(=O)c2ccc(NC(N)=O)cc2)cc1		> 100		> 100		> 100		> 100		> 100		> 100		> 100		> 100		> 100		> 100
O=C(NCCNc1nccc(-c2c(-c3cccc(O)c3)nc3sccn23)n1)Nc1cccc(C(F)(F)F)c1	4.16	36.6	8330	23.4	4.95	23.6	3.6	14.6	2500	12.7	3480	13.1	3.25	13.7	4.05	26.2	5.09	36.2	3.45	14.6
C=Cc1cc(OC)c2c(c1)c(=O)oc1c2cc(OC)c2c(O)ccc(C3OC(C)C(O)C(C)(O)C3O)c21 (configuration not stated)	0.000589		0.0967		0.000187		1.98e-05		0.41		1.43	1.08	1.29e-05		0.000281		0.00151	0.733	0.000148	
